Assay results as given in US11845724B2, “USP30 inhibitors and uses thereof” (Vincere Biosciences, Inc., priority 2019, dated 2023).
Values joined by “and” are separate entries in the source; they are usually repeats but may differ in a detail not shown here. Equal entries are not always repeated. Where two headings read alike, the source gives them in different places.

Legend:
[1] = system: differentiated RenCell VM; assay: In-cell Tom20 loss assay; assay type: cell-based; settings: 20 h after compound addition
Procedure: To evaluate Tom20 loss following treatment with compounds and/or antimycin/oligomycin, a96-well plate assay was performed on differentiated RenCell VM. These were seeded into laminin-coated 96-well plates at 5000 cells/well in normal growth medium (ReNcell NSC maintenance medium+20 ng/ml FDF-2 and 20 ng/ml EGF). After 3 days, growth medium was replaced with differentiation medium (ReNCell NSC medium+0.1 mM dibutyryl cAMP and 2 ng/ml GDNF). On days 1 and 4 following addition of differentiation medium, the media was removed and replaced with fresh differentiation medium. On the 7th day compounds or DMSO were added, and 1 hour later, some wells also received additions of oligomycin (1 uM and antimycin (1 uM). 20 h after compound addition, cells were fixed by adding formaldehyde to a final concentration of […], incubated 20 minutes at room temperature, then washed with PBS. Blocking buffer (3% bovine serum albumin, 2% fetal bovine serum, 0.2% Triton X100 in PBS) was added to all wells for two hours, then removed and replaced with blocking buffer containing antibody against Tom20 overnight. After washing with PBS, secondary antibody (Donkey anti-mouse conjugated to Cy3) was added along with DAPI to mark nuclei, and incubated two hours. After again washing with PBS, cells were imaged using GE INCell 6000 at 40× and quantified using HCA-based quantification algorithm of fluorescence density×area normalized to the number of nuclei.

[2] = target: recombinant USP30 (amino acids 57-517 of the human sequence) (Homo sapiens (Human), UniProt Q70CQ3); assay: In vitro USP30 biochemical assay (Ubiquitin-Rhodamine)
Procedure: In vitro biochemical assay to establish the potency of compounds for USP30 inhibition: a 384-well plate assay using a fluorophore tagged substrate of USP30 was used for in vitro screening of compounds. Each compound was tested at 10 different concentrations (0.5 to 10,000 nM) in duplicate wells. Compounds were pre-incubated at 25° C. for 30 min in an assay buffer consisting of 20 mM Tris/HCl, pH8.0, 1 mM GSH, 0.01% Triton X-100, 0.03% BGG and 1.5 nM recombinant USP30 (amino acids 57-517 of the human sequence with a C-terminal 6-His tag). Following the pre-incubation, Ubiquitin-Rhodamine substrate dissolved in the assay buffer was added at the final concentration of 25 nM to each well and plates were incubated at 25° C. for an additional 75 minutes. The reaction was stopped by adding 10 mM citric acid and fluorescence was read using excitation wavelength 485 nm, emission of 535 nm. Data were analyzed using Graph Pad Prism software with a four-parameter (floating slope) fit to log concentration data to determine IC50s.

[3] = target: T1, USP30 (Homo sapiens (Human), UniProt Q70CQ3); assay: Dundee MALDI-TOF mass spectrometry assay (IC50); assay type: biochemical; settings: USP30 25 ng/μl, K48-linked diubiquitin 5.6 μM
How it was run: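 USP30 (25 ng/μl) preincubated with compound 5 min at RT in Tris/BSA/DTT buffer, then K48-linked diubiquitin (5.6 μM) added for 45 min at RT. Stopped with 2% TFA; cleavage quantified by MALDI-TOF mass spectrometry to give IC50.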

[4] = target: T1, USP30; assay: Dundee MALDI-TOF mass spectrometry assay (% DUB activity remaining at 1 μM); assay type: biochemical; settings: % DUB activity remaining at compound concentration of 1 μM; avg; read-out: Dundee % Activity at 1 μM (avg in vitro MS assay)
Procedure: Compounds were tested in a MALDI-TOF assay based on the paper by Ritorto et al. (Ritorto et al. Screening of DUB activity and specificity by MALDI-TOF mass spectrometry. Nat. Commun. 5:4763).
USP30 (25 ng/μl) tested against K48-linked diubiquitin (5.6 μM). USP30 was diluted in a buffer containing 40 mM Tris, 0.01% BSA, 1 mM DTT and K48 in 40 mM Tris, 0.01% BSA.
The compounds were pre-incubated with the USP30 for 5 mins at room temp before the K48 dimer addition. The assay mixture was then incubated for 45 mins at room temp. The assay was stopped by the addition of TFA to a final concentration of 2% (v/v).
Acidified samples of the DUB assays were mixed with 0.5 mM 15N-ubiquitin and then with one part of 2% (v/v) TFA and one part of 2,5 DHAP matrix solution (7.6 mg of 2,5 DHAP in […] ethanol and […] of an aqueous 12 mg ml 1 diammonium hydrogen citrate). Then 250 nl of these solutions were spotted onto an MTP AnchorChip 1,536 TF and this is analysed on the Bruker rapifleX MALDI-TOF.
Table 22 presents the Dundee MALDI-TOF values expressed as % DUB activity remaining at a compound concentration of 1 μM.

[5] = read-out: USP30 IC50 μM (avg), Ubiquitin-Rhodamine substrate 25 nM, 1.5 nM recombinant USP30
[6] = avg, read-out: Dundee IC50 μM (avg in vitro MS assay)
[7] = USP30 IC50 μM (avg), Ubiquitin-Rhodamine substrate 25 nM, 1.5 nM recombinant USP30
[8] = Dundee IC50 μM (avg in vitro MS assay)

recombinant USP30 (amino acids 57-517 of the human sequence), sequence (Q70CQ3 57-517): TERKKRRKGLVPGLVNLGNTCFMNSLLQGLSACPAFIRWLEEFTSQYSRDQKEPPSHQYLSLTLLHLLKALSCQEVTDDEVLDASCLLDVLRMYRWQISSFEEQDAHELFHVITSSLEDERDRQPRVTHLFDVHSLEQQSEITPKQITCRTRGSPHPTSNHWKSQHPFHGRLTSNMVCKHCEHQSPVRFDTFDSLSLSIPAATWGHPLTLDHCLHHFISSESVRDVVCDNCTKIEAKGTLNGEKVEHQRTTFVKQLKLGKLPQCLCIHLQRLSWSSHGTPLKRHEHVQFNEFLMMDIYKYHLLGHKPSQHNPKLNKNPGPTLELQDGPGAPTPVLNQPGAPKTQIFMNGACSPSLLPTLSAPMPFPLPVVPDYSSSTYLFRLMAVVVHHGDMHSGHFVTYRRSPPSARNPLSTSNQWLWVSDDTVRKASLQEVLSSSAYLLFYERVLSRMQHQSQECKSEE
T1 sequence (Q70CQ3 whole entry): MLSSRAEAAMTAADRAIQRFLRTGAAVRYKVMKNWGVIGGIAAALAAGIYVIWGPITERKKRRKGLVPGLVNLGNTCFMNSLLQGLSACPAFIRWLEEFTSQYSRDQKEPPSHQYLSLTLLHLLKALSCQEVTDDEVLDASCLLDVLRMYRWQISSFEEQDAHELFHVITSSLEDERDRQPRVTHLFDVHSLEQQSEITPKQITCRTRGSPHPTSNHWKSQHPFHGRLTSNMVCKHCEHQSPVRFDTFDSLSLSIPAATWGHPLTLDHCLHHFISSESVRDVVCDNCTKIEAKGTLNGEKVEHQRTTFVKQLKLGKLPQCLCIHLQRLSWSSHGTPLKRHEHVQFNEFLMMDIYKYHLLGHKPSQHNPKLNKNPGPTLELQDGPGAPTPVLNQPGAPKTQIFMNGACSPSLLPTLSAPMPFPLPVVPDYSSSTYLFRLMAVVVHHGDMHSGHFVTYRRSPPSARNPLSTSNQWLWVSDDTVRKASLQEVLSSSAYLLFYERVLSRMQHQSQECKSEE

Row | SMILES | IC50 [1] [nM] | IC50 [2, 5] [µM] | IC50 [3, 6] | IC50 [2, 7] | IC50 [3, 8] [µM] | activity at 1 µM [4] [%]
1 | O=C(N[C@@H](Cc1ccccc1)C(=O)Nc1ccc(S(=O)(=O)NC23CC(C2)C3)nc1)c1ccc(F)cc1 [Compound I-104, (S)-N-(1-(6-(N-bicyclo[1.1.1]pentan-1-ylsulfamoyl)pyridin-3-ylamino)-1-oxo-3-phenylpropan-2-yl)-4-fluorobenzamide] | ≤ 500 | – | < 0.05 µM | 0.05 to 1 µM | – | –
2 | O=C(N[C@@H](Cc1ccccc1)C(=O)Nc1ccc(S(=O)(=O)NC2CCOCC2)cc1)c1ccc(F)cc1 [Compound I-34, (S)-4-fluoro-N-(1-oxo-3-phenyl-1-(4-(N-(tetrahydro-2H-pyran-4-yl)sulfamoyl)phenylamino)propan-2-yl)benzamide] | ≤ 500 | < 0.05 | < 0.05 µM | – | – | –
3 | O=C(N[C@@H](Cc1ccccc1)C(=O)Nc1cccc2c(S(=O)(=O)NC3COC3)cccc12)C1CCCCC1 [Compound I-130, (S)-N-(1-(5-(N-oxetan-3-ylsulfamoyl)naphthalen-1-ylamino)-1-oxo-3-phenylpropan-2-yl)cyclohexanecarboxamide] | > 10000 | – | 0.05 to 1 µM | 0.05 to 1 µM | – | –
4 | CC(C)(C)NS(=O)(=O)c1ccc(NC(=O)C2Cc3ccccc3CN2C(=O)c2ccc(F)cc2)cc1 (stereo not shown) [Compound I-22, N-(4-(N-tert-Butylsulfamoyl)phenyl)-2-(4-fluorobenzoyl)-1,2,3,4-tetrahydroisoquinoline-3-carboxamide] | > 10000 | – | – | 1 to 10 µM | 0.05 to 1 | 0 to 25
5 | O=C(N[C@@H](Cc1ccccc1)C(=O)Nc1ccc(S(=O)(=O)NC2CCCC2)cc1)c1cccnc1 [Compound I-80, (S)-N-(1-(4-(N-cyclopentylsulfamoyl)phenylamino)-1-oxo-3-phenylpropan-2-yl)nicotinamide] | 1000 to 10000 | – | 0.05 to 1 µM | 0.05 to 1 µM | – | –
6 | CC(C)(CO)NS(=O)(=O)c1ccc(NC(=O)[C@H](Cc2ccccc2)NC(=O)c2ccc(F)cc2)cc1 [Compound I-137, (S)-4-fluoro-N-(1-(4-(N-(1-hydroxy-2-methylpropan-2-yl)sulfamoyl)phenylamino)-1-oxo-3-phenylpropan-2-yl)benzamide] | ≤ 500 | < 0.05 | < 0.05 µM | – | – | –
7 | CC(C)(C)NC(c1ccc(NC(=O)[C@H](Cc2ccccc2)NC(=O)c2ccc(F)cc2)cc1)C(F)(F)F (stereo partly drawn) [Compound I-18, N-((2S)-1-(4-(1-(tert-butylamino)-2,2,2-trifluoroethyl)phenylamino)-1-oxo-3-phenylpropan-2-yl)-4-fluorobenzamide] | – | > 10 | – | – | > 10 | 50 to 75

Now from value to compound, other results behind:

Row | IC50 [1] [nM] | IC50 [2, 5] [µM] | IC50 [3, 6] | IC50 [2, 7] | SMILES | IC50 [3, 8] [µM] | activity at 1 µM [4] [%]
8 | ≤ 500 | < 0.05 | – | – | O=C(N[C@@H](Cc1ccccc1)C(=O)Nc1ccc(S(=O)(=O)N[C@@H]2CCOC2)cc1)c1ccc(F)cc1 [Compound I-175, 4-fluoro-N-((S)-1-oxo-3-phenyl-1-(4-(N-((R)-tetrahydrofuran-3-yl)sulfamoyl)phenylamino)propan-2-yl)benzamide] | – | –
9 | 500 to 1000 | < 0.05 | < 0.05 µM | – | O=C(N[C@@H](Cc1ccccc1)C(=O)Nc1ccc(S(=O)(=O)NC2CCOCC2)nc1)c1ccc(F)cc1 [Compound I-107, (S)-4-fluoro-N-(1-oxo-3-phenyl-1-(6-(N-(tetrahydro-2H-pyran-4-yl)sulfamoyl)pyridin-3-ylamino)propan-2-yl)benzamide] | – | –
10 | 500 to 1000 | < 0.05 | 0.05 to 1 µM | – | Cc1cc(S(=O)(=O)NC(C)(C)C)ccc1NC(=O)[C@H](Cc1ccccc1)NC(=O)c1ccc(F)cc1 [Compound I-93, (S)-N-(1-(4-(N-tert-butylsulfamoyl)-2-methylphenylamino)-1-oxo-3-phenylpropan-2-yl)-4-fluorobenzamide] | – | –
11 | – | – | < 0.05 µM | 0.05 to 1 µM | O=C(N[C@@H](Cc1ccccc1)C(=O)Nc1ccc(S(=O)(=O)NC2COC2)cc1)c1ccc(F)cc1 [Compound I-64, (S)-4-fluoro-N-(1-(4-(N-oxetan-3-ylsulfamoyl)phenylamino)-1-oxo-3-phenylpropan-2-yl)benzamide] | – | 0 to 25
12 | – | – | 0.05 to 1 µM | 0.05 to 1 µM and 1 to 10 µM | CN(C(=O)c1ccc(F)cc1)[C@@H](Cc1ccccc1)C(=O)Nc1ccc(S(=O)(=O)NC(C)(C)C)cc1 [Compound I-35, (S)-N-(1-(4-(N-tert-Butylsulfamoyl)phenylamino)-1-oxo-3-phenylpropan-2-yl)-4-fluoro-N-methylbenzamide] | – | 0 to 25
13 | ≤ 500 | 0.05 to 1 | < 0.05 µM and 0.05 to 1 µM | 0.05 to 1 µM | O=C(N[C@@H](Cc1ccccc1)C(=O)Nc1ccc(S(=O)(=O)NC23CC(C2)C3)cc1)c1ccc(F)cc1 [Compound I-11, (S)-N-(1-(4-(N-Bicyclo[1.1.1]pentan-1-ylsulfamoyl)phenylamino)-1-oxo-3-phenylpropan-2-yl)-4-fluorobenzamide] | – | –
